Test results as given in ChEMBL document CHEMBL3421549, “2-Aryl-3-methyloctahydrophenanthrene-2,3,7-triols as potent dissociated glucocorticoid receptor agonists” (J Med Chem, 2015).

Experiments:
Glucocorticoid receptor [1] = target: T1, Glucocorticoid receptor (Homo sapiens, UniProt P04150)
T1 sequence (P04150 whole entry): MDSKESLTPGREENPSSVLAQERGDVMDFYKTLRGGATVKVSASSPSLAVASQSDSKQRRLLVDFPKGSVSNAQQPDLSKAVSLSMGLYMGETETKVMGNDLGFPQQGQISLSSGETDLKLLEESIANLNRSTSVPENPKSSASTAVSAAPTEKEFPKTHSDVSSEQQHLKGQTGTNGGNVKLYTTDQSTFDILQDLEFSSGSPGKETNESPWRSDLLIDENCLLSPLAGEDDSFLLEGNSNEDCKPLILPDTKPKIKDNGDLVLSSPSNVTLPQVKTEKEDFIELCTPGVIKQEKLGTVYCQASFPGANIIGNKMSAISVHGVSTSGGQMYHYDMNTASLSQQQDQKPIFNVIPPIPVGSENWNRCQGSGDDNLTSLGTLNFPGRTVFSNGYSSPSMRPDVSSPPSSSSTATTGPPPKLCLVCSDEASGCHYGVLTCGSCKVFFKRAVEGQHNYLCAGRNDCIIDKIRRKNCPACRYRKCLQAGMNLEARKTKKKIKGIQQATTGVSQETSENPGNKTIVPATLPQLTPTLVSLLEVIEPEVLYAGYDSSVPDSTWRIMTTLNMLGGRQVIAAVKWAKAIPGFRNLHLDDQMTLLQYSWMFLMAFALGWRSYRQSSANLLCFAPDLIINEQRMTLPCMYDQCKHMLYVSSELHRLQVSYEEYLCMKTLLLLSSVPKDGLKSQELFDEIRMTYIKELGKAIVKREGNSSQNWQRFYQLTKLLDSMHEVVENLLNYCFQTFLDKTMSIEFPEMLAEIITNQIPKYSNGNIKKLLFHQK
Description: Binding affinity to human GR

Glucocorticoid receptor [2] = target: T1, Glucocorticoid receptor; experiment: Transrepression activity at glucocorticoid receptor in human SW1353 cells assessed as repression of IL-1-induced MMP-13 production after 24 hrs by ELISA; format: cell-based
Glucocorticoid receptor [3] = target: T1, Glucocorticoid receptor; remark: listed apart in the source
Description: Transrepression activity at glucocorticoid receptor in human whole blood assessed as repression of IL-1-induced TNF-alpha production after 4 hrs by ELISA

Androgen receptor = target: T2, Androgen receptor (Homo sapiens, UniProt P10275); experiment: Binding affinity to human AR
T2 sequence (P10275 whole entry): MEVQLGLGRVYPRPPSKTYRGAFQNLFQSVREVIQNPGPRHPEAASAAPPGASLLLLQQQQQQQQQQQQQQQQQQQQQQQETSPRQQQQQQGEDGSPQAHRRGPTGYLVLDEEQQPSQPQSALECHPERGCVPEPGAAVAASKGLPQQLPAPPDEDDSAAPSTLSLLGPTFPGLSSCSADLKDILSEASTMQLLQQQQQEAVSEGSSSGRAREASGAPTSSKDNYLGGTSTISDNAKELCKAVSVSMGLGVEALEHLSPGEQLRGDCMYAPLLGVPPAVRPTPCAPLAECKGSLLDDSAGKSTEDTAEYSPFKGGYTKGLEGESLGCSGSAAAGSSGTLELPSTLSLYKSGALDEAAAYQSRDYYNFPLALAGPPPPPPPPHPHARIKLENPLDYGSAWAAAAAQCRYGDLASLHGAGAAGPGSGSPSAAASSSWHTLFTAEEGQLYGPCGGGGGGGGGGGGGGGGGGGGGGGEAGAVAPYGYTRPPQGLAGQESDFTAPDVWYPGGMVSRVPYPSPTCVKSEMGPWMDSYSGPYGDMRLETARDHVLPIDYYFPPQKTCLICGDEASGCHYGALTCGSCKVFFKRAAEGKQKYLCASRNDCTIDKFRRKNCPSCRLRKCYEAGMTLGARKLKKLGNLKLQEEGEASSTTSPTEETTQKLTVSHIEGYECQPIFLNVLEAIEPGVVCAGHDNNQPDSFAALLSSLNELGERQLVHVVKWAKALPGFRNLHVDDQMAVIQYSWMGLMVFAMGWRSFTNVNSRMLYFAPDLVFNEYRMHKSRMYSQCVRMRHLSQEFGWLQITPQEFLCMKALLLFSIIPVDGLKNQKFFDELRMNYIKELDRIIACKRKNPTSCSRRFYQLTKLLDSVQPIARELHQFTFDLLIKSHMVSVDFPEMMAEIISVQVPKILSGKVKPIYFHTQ

Estrogen receptor beta = Estrogen receptor beta (Homo sapiens, UniProt Q92731); experiment: Binding affinity to human ER-beta
Progesterone receptor = target: T3, Progesterone receptor (Homo sapiens, UniProt P06401); experiment: Binding affinity to human PR
T3 sequence (P06401 whole entry): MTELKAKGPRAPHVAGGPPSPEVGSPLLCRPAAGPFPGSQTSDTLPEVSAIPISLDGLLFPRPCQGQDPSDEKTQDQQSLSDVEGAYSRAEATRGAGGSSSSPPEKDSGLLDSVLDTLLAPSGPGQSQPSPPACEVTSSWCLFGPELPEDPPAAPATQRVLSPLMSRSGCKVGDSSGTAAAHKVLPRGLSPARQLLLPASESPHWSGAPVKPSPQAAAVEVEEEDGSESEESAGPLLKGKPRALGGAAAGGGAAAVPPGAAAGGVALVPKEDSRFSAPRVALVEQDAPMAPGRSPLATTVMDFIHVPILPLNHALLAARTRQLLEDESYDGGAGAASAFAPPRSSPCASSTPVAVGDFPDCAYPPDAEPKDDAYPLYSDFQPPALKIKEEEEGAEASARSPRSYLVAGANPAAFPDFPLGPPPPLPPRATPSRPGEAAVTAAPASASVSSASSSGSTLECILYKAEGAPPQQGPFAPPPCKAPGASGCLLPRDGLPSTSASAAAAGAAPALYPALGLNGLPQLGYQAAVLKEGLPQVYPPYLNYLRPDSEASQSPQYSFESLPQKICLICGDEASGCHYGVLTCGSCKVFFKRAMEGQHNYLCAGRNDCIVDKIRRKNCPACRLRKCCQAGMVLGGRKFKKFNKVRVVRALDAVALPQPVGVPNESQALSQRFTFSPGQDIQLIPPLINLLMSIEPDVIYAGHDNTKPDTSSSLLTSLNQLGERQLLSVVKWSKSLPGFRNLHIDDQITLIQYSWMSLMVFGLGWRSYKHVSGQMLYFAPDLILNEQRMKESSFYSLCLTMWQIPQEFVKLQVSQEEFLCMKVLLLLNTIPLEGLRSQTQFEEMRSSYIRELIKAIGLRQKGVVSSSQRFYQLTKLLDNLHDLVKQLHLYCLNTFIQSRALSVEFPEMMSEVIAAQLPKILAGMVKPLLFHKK

Estrogen receptor = target: T4, Estrogen receptor (Homo sapiens, UniProt P03372); experiment: Binding affinity to human ER-alpha
T4 sequence (P03372 whole entry): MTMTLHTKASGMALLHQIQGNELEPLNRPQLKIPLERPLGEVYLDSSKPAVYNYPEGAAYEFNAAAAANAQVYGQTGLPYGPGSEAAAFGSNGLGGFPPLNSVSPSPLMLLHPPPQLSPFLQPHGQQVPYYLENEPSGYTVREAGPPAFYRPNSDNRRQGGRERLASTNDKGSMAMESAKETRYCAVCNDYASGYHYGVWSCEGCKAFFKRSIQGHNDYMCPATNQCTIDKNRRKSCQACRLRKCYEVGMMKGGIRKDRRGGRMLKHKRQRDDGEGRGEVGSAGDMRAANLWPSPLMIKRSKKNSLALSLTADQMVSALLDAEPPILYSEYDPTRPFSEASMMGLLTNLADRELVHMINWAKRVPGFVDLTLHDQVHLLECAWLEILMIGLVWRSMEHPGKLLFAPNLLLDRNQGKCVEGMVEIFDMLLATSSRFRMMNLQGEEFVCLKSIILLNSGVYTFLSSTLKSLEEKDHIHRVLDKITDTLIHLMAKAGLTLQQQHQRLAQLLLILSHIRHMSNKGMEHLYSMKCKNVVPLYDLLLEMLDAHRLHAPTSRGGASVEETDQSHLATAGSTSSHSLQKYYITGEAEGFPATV

Estrogen receptor beta, sequence (Q92731 whole entry): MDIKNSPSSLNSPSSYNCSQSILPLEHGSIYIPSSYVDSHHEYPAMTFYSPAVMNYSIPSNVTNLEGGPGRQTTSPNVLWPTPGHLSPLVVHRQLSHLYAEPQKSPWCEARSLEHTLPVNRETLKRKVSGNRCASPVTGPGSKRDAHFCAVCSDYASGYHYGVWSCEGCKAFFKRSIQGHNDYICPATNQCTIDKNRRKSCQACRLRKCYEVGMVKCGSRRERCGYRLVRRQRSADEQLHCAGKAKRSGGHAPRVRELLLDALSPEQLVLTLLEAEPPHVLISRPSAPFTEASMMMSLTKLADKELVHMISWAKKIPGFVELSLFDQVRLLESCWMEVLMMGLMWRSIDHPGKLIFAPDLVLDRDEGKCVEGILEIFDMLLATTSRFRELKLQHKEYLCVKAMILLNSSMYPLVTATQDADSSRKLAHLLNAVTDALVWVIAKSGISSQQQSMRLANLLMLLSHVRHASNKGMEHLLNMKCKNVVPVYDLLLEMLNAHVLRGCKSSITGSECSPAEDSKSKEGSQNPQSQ

SMILES | IC50 (Glucocorticoid receptor [1]) [µM] | IC50 (Glucocorticoid receptor [2]) [µM] | IC50 (Glucocorticoid receptor [3]) [µM] | IC50 (Androgen receptor) [µM] | IC50 (Estrogen receptor beta) [µM] | IC50 (Progesterone receptor) [µM] | IC50 (Estrogen receptor) [µM]
CCC[C@]1(O)C[C@H]2CCc3cc(O)ccc3[C@]2(CC)C[C@@]1(C)O | 0.0201 | > 5 |  |  |  |  | 
CC#C[C@]1(O)C[C@H]2CCc3cc(O)ccc3[C@]2(CC)C[C@@]1(C)O | 0.0015 | 0.0019 |  |  |  |  | 
C=CC[C@]1(O)C[C@H]2CCc3cc(O)ccc3[C@]2(CC)C[C@@]1(C)O | 0.0354 | > 5 |  |  |  |  | 
CC[C@@]12C[C@@](C)(O)[C@@](C)(O)C[C@H]1CCc1cc(O)ccc12 | 0.211 |  |  |  |  |  | 
CC[C@@]12C[C@@](C)(O)[C@](O)(CC)C[C@H]1CCc1cc(O)ccc12 (mixture of isomers) | 0.047 | > 5 |  |  |  |  | 
Cc1noc(=O)c2ccc(NC(=O)C(O)(CC3(c4cc(F)ccc4Cl)CCC3)C(F)(F)F)cc12 (racemic) | 0.0004 | 0.0075 | 1 | 0.04 | > 100 | 0.0002 | > 100
CC[C@@]12C[C@@](C)(O)[C@](O)(c3ccccc3)C[C@H]1CC(=O)c1cc(O)ccc12 | 0.0025 | 0.005 | 0.0725 |  |  |  | 
CC[C@@]12C[C@@](C)(O)[C@](O)(c3ccccc3)C[C@H]1C=Cc1cc(O)ccc12 | 0.0003 | 0.004 | 0.4 |  |  |  | 
C=C[C@]1(O)C[C@H]2CCc3cc(O)ccc3[C@]2(CC)C[C@@]1(C)O (mixture of isomers) | 0.0121 | 0.65 |  |  |  |  | 
CC[C@@]12C[C@@](C)(O)[C@](O)(c3ccccc3)C[C@H]1C=C(C)c1cc(O)ccc12 | 0.00067 | 0.0006 | 0.043 |  |  |  | 
CC[C@@]12CC[C@](O)(c3ccccc3)C[C@H]1CCc1cc(O)ccc12 |  | > 5 |  |  |  |  | 
C/C=C/[C@]1(O)C[C@H]2CCc3cc(O)ccc3[C@]2(CC)C[C@@]1(C)O (mixture of isomers) | 0.0021 | 0.006 |  |  |  |  | 
CC[C@@]12C[C@@H](O)[C@](O)(c3ccccc3)C[C@H]1CCc1cc(O)ccc12 |  | > 5 |  |  |  |  | 
CC[C@@]12C[C@@](C)(O)[C@](O)(c3ccccc3)C[C@H]1C[C@@H](O)c1cc(O)ccc12 | 0.079 | > 5 |  |  |  |  | 
CC[C@@]12C[C@@](C)(O)[C@](O)(c3ccccc3)C[C@H]1CC(=O)c1cc(OC(=O)c3ccccc3)ccc12 | 0.0017 | 0.028 |  |  |  |  | 

Continued, values first:

IC50 (Glucocorticoid receptor [1]) [µM] | IC50 (Glucocorticoid receptor [2]) [µM] | IC50 (Glucocorticoid receptor [3]) [µM] | IC50 (Androgen receptor) [µM] | IC50 (Estrogen receptor beta) [µM] | IC50 (Progesterone receptor) [µM] | IC50 (Estrogen receptor) [µM] | SMILES
0.0006 | 0.0035 | 0.109 | 0.3 | > 3.2 | 0.321 | > 3.2 | CC[C@@]12C[C@@](C)(O)[C@](O)(c3ccccc3)C[C@H]1CCc1cc(O)ccc12
0.022 | 0.08 |  |  |  |  |  | CC[C@@]12C[C@@](C)(O)[C@](O)(c3cccnc3)C[C@H]1CCc1cc(O)ccc12
0.0091 | 0.1 |  |  |  |  |  | CC[C@@]12C[C@@](C)(O)[C@](O)(c3ccncc3)C[C@H]1CCc1cc(O)ccc12
0.0015 | 0.0015 | 0.167 |  |  |  |  | CC[C@@]12C[C@@](C)(O)[C@](O)(c3ccccn3)C[C@H]1CCc1cc(O)ccc12
0.00079 | 0.0015 | 0.083 |  |  |  |  | CC[C@@]12C[C@@](C)(O)[C@](O)(c3nccs3)C[C@H]1CCc1cc(O)ccc12
0.0013 | 0.012 |  |  |  |  |  | CC[C@@]12C[C@@](C)(O)[C@](O)(c3ccc(C)cc3)C[C@H]1CCc1cc(O)ccc12
0.0052 | > 5 |  |  |  |  |  | C=C[C@@]1(O)C[C@@]2(CC)c3ccc(O)cc3CC[C@@H]2C[C@@]1(O)c1ccccc1
0.0012 | 0.006 |  |  |  |  |  | CC[C@@]12C[C@](O)(CC)[C@](O)(c3ccccc3)C[C@H]1CCc1cc(O)ccc12
0.038 | > 5 |  |  |  |  |  | CC[C@@]12C[C@](C)(O)[C@](O)(c3ccccc3)C[C@H]1CCc1cc(O)ccc12
